Measurements reported in patent US8268990B2, “Compounds” (AstraZeneca AB, priority 2007, dated 2012).

Each compound was assayed against T1, Recombinant human TLR7 (Homo sapiens, UniProt Q9NYK1) (assay: Human TLR7 Assay (SEAP reporter)). Conditions: HEK293 cell line stably expressing human TLR7 and pNiFty2-SEAP reporter; SEAP induction after overnight incubation at 37° C., 0.1% (v/v) DMSO.
T1 construct: expressed in transfected cells; host or cells: HEK293 cell line stably expressing the pNiFty2-SEAP reporter plasmid; TLR7 in vector pUNO, blasticidin selection
T1 sequence (Q9NYK1 27-1049): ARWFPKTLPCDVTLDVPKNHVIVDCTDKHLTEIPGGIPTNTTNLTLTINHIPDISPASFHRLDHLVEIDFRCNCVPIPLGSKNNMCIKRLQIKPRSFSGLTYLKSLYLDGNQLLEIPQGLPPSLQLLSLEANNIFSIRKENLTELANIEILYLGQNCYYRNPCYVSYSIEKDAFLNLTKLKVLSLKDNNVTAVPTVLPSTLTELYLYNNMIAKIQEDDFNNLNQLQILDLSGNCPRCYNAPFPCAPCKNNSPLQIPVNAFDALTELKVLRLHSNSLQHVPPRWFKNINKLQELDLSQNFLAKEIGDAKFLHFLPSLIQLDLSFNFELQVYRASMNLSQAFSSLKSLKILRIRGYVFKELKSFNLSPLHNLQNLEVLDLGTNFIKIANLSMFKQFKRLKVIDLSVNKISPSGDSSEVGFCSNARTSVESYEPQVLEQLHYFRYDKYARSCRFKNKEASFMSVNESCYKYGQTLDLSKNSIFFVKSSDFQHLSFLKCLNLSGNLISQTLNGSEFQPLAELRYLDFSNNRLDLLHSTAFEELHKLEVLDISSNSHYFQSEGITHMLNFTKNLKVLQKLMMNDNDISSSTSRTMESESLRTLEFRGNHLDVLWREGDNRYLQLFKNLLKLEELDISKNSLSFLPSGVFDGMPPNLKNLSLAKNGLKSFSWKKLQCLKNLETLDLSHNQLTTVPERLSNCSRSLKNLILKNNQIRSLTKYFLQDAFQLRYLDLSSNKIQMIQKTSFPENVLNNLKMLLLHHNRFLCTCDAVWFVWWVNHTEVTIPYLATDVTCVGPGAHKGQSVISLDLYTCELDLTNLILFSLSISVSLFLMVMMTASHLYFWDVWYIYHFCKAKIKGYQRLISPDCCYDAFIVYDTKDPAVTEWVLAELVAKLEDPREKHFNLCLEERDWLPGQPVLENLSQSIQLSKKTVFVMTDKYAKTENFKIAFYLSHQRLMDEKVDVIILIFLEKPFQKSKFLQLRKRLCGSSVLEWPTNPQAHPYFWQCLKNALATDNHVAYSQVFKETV
Assay type: cell-based
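Note: SEAP driven by an NFkB-responsive composite promoter, pEC50 read at half of each compound's own maximal SEAP induction.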
Excerpt: Recombinant human TLR7 was stably expressed in a HEK293 cell line already stably expressing the pNiFty2-SEAP reporter plasmid; integration of the reporter gene was maintained by selection with the antibiotic zeocin. The most common variant sequence of human TLR7 (represented by the EMBL sequence AF240467) was cloned into the mammalian cell expression vector pUNO and transfected into this reporter cell-line. Transfectants with stable expression were selected using the antibiotic blasticidin. In this reporter cell-line, expression of secreted alkaline phosphatase (SEAP) is controlled by an NFkB/ELAM-1 composite promoter comprising five NFkB sites combined with the proximal ELAM-1 promoter. TLR signaling leads to the translocation of NFkB and activation of the promoter results in expression of the SEAP gene. TLR7-specific activation was assessed by determining the level of SEAP produced following overnight incubation of the cells at 37° C. with the standard compound in the presence of 0.1% (v/v) dimethylsulfoxide (DMSO). Concentration dependent induction of SEAP production by compounds was expressed as the concentration of compound which produced half of the maximal level of SEAP induction for that compound (pEC50).

Question: How did the EC50 turn out when `CCCCNc1nc(N)nc(C)c1Sc1ccc(CC(=O)OCC2CCN(C)CC2)cc1` [Example 95, (1-Methylpiperidin-4-yl)methyl 2-(4-(2-amino-4-(butylamino)-6-methylpyrimidin-5-ylthio)phenyl)acetate] was run?
Answer: The EC50 was 63.1 nM.

Question: With `CCC[C@@H](CO)Nc1nc(N)nc(C)c1Cc1ccc(CC(=O)OC)cc1OC` [Example 30, (S)-Methyl 2-(4-((2-amino-4-(1-hydroxypentan-2-ylamino)-6-methylpyrimidin-5-yl)methyl)-3-methoxyphenyl)acetate] as the compound, how does the EC50 read?
Answer: Its EC50 is 31.6 nM.

Question: Which EC50 does the source give for `CCCCCNc1nc(N)nc(C)c1CCCN(Cc1ccc(CC(=O)OC)cc1)C(=O)C1CCN(C)CC1` [Example 51, Methyl 2-(4-((N-(3-(2-amino-4-methyl-6-(pentylamino)pyrimidin-5-yl)propyl)-1-methylpiperidine-4-carboxamido)methyl)phenyl)acetate] here?
Answer: Its EC50 is 794 nM.

Question: With `CCCCCNc1nc(N)nc(C)c1CCCN(Cc1cccc(CC(=O)OC)c1)C(=O)CN(C)C` [Example 3, Methyl 2-(3-((N-(3-(2-amino-4-methyl-6-(pentylamino)pyrimidin-5-yl)propyl)-2-(dimethylamino)acetamido)methyl)phenyl)acetate] as the compound, how does the EC50 read?
Answer: Its EC50 is 631 nM.

Question: With `CCCCCNc1nc(N)nc(C)c1CCCNCc1cccc(CC(=O)OC)c1` [Example 1, Methyl 2-(3-((3-(2-Amino-4-methyl-6-(pentylamino)pyrimidin-5-yl)propylamino)methyl)phenyl)acetate] as the compound, how does the EC50 read?
Answer: Its EC50 is 501 nM.

Question: For `CCCCCNc1nc(N)nc(C)c1Cc1ccc(CC(=O)OCC2CCN(C)CC2)cc1` [Example 60, (1-Methylpiperidin-4-yl)methyl 2-(4-((2-amino-4-methyl-6-(pentylamino)pyrimidin-5-yl)methyl)phenyl)acetate], which EC50 is on record?
Answer: Its EC50 is 200 nM.

Question: How did the EC50 turn out when `CCCCCNc1nc(N)nc(C)c1CCCN(Cc1cccc(CC(=O)OC)c1)S(C)(=O)=O` [Example 13, Methyl 2-(3-((N-(3-(2-amino-4-methyl-6-(pentylamino)pyrimidin-5-yl)propyl)methylsulfonamido)methyl)phenyl)acetate] was run?
Answer: The EC50 was 2510 nM.

Question: `CCCCCNc1nc(N)nc(C)c1Cc1cccc(CC(=O)OC)c1` [Example 20, Methyl 2-(3-((2-amino-4-methyl-6-(pentylamino)pyrimidin-5-yl)methyl)phenyl)acetate] was tested. Which EC50 did it give?
Answer: The EC50 was 2000 nM.

Question: How did the EC50 turn out when `CCCCCNc1nc(N)nc(C)c1Cc1ccc(CC(=O)OCCCN2CCN(C)CC2)cc1` [Example 56, 3-(4-Methylpiperazin-1-yl)propyl 2-(4-((2-amino-4-methyl-6-(pentylamino)pyrimidin-5-yl)methyl)phenyl)acetate] was run?
Answer: Its EC50 is 251 nM.

Question: Which EC50 does the source give for `CCCCNc1nc(N)nc(C)c1Cc1cc(CC(=O)OC)ccc1O` [Example 99, Methyl 2-(3-((2-amino-4-(butylamino)-6-methylpyrimidin-5-yl)methyl)-4-hydroxyphenyl)acetate] here?
Answer: The EC50 was 79.4 nM.

Question: With `CCCCCNc1nc(N)nc(C)c1CCCN(Cc1cccc(CC(=O)OC)c1)C(=O)CN1CCN(CCCN(C)C)CC1` [Example 9, Methyl 2-(3-((N-(3-(2-amino-4-methyl-6-(pentylamino)pyrimidin-5-yl)propyl)-2-(4-(3-(dimethylamino)propyl)piperazin-1-yl)acetamido)methyl)phenyl)acetate] as the compound, how does the EC50 read?
Answer: The EC50 was 3980 nM.

Question: `CCC[C@@H](CO)Nc1nc(N)nc(C)c1Cc1ccc(CC(=O)OCC2CCN(C)CC2)cc1OC` [Example 71, (S)-(1-Methylpiperidin-4-yl)methyl 2-(4-((2-amino-4-(1-hydroxypentan-2-ylamino)-6-methylpyrimidin-5-yl)methyl)-3-methoxyphenyl)acetate] was tested. Which EC50 did it give?
Answer: The EC50 was 20 nM.

Question: For `CC[C@H](O)CNc1nc(N)nc(C)c1Cc1ccc(CC(=O)OC)cc1OC` [Example 53, (S)-Methyl 2-(4-((2-amino-4-(2-hydroxybutylamino)-6-methylpyrimidin-5-yl)methyl)-3-methoxyphenyl)acetate], which EC50 is on record?
Answer: Its EC50 is 39.8 nM.

Question: Which EC50 does the source give for `CCCCCNc1nc(N)nc(C)c1CCCNC(=O)Cc1cccc(CC(=O)OC)c1` [Example 24, Methyl 2-(3-(2-(3-(2-amino-4-methyl-6-(pentylamino)pyrimidin-5-yl)propylamino)-2-oxoethyl)phenyl)acetate] here?
Answer: The EC50 was 1000 nM.
